Experimental data published in PubChem BioAssay AID248 (DTP/NCI, 2004).
Several values for one entry are separate records, joined by “and”; a condition that tells them apart may be missing. Equal values may be shown once. Toxic doses and inconclusive results are not listed. Rule as the data show it: active = T/C of 150% or more; inactive = T/C below 125%.

System: L1210 leukemia ip in BDF1 mice, survival T/C
Assay: NCI In Vivo Anticancer Drug Screen. Data for tumor model L1210 Leukemia (intraperitoneal) in B6D2F1 (BDF1) mice
Details: endpoint: mean survival time, higher = longer survival
How it was run: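 In this screen, tumor-bearing mice given compound are compared to those given vehicle, and their survival values are reported as a treated-to-control quotient.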

[1] = dose: 100.0 mg/kg/injection, schedule: Q01DX001 (ip), vehicle: saline
[2] = dose: 200.0 mg/kg/injection, schedule: Q01DX001 (ip), vehicle: saline
[3] = dose: 400.0 mg/kg/injection, schedule: Q01DX001 (ip), vehicle: saline
[4] = dose: 100.0 mg/kg/injection, schedule: Q01DX009 (ip), vehicle: Klucel (hydroxypropylcellulose) (HPC)
[5] = dose: 100.0 mg/kg/injection, schedule: Q04DX003 (ip), vehicle: Klucel (hydroxypropylcellulose) (HPC)
[6] = dose: 100.0 mg/kg/injection, schedule: Q04DX003 (ip), vehicle: saline
[7] = dose: 200.0 mg/kg/injection, schedule: Q01DX009 (ip), vehicle: Klucel (hydroxypropylcellulose) (HPC)
[8] = dose: 200.0 mg/kg/injection, schedule: Q04DX003 (ip), vehicle: Klucel (hydroxypropylcellulose) (HPC)
[9] = dose: 200.0 mg/kg/injection, schedule: Q04DX003 (ip), vehicle: saline
[10] = dose: 400.0 mg/kg/injection, schedule: Q01DX009 (ip), vehicle: Klucel (hydroxypropylcellulose) (HPC)
[11] = dose: 400.0 mg/kg/injection, schedule: Q04DX003 (ip), vehicle: Klucel (hydroxypropylcellulose) (HPC)
[12] = dose: 400.0 mg/kg/injection, schedule: Q04DX003 (ip), vehicle: saline
[13] = dose: 100.0 mg/kg/injection, schedule: Q01DX001 (ip), vehicle: Klucel (hydroxypropylcellulose) (HPC)
[14] = dose: 200.0 mg/kg/injection, schedule: Q01DX001 (ip), vehicle: Klucel (hydroxypropylcellulose) (HPC)

Measured: T/C

COc1cc(OC)cc(C(=O)N2CC2)c1
inactive: dose: 25.0 mg/kg/injection, schedule: Q01DX009 (ip), vehicle: water 100 % of control | dose: 50.0 mg/kg/injection, schedule: Q01DX009 (ip), vehicle: water 88 % of control

COc1ccc(/C=[N+](\[O-])c2ccccc2)cc1
inactive: dose: 50.0 mg/kg/injection, schedule: Q01DX001 (ip), vehicle: saline 110 % of control | [1] 112 % of control | [2] 112 % of control | [3] 118 % of control

COC(=O)c1ccc2c(c1)OCO2
inactive: dose: 100.0 mg/kg/injection, schedule: Q01DX001 (ip), vehicle: saline with Tween-80 100 % of control | dose: 100.0 mg/kg/injection, schedule: Q01DX009 (ip), vehicle: saline sonified 94 % of control | dose: 200.0 mg/kg/injection, schedule: Q01DX001 (ip), vehicle: saline with Tween-80 103 % of control | dose: 200.0 mg/kg/injection, schedule: Q01DX009 (ip), vehicle: saline sonified 100 % of control | dose: 400.0 mg/kg/injection, schedule: Q01DX001 (ip), vehicle: saline with Tween-80 95 % of control | dose: 400.0 mg/kg/injection, schedule: Q01DX009 (ip), vehicle: saline sonified 102 % of control

C/C=C(\C)C#N
inactive: dose: 22.0 mg/kg/injection, schedule: Q01DX Z (ip), vehicle: saline 102 % of control | dose: 33.0 mg/kg/injection, schedule: Q01DX Z (ip), vehicle: saline 93 % of control

CCOC(=O)CCC(C)C(C)=O (stereo unspecified)
inactive: dose: 50.0 mg/kg/injection, schedule: Q04DX002 (ip), vehicle: saline with Tween-80 108 % of control | [1] 109 % of control | dose: 100.0 mg/kg/injection, schedule: Q04DX002 (ip), vehicle: saline with Tween-80 103 % of control | [2] 98 % of control | dose: 200.0 mg/kg/injection, schedule: Q04DX002 (ip), vehicle: saline with Tween-80 108 % of control | [3] 98 % of control

CC1C(N2CCCCC2)CS1(=O)=O (stereo unspecified)
inactive: dose: 100.0 mg/kg/injection, schedule: Q04DX002 (ip), vehicle: saline 121 % of control

O=C1NCCO1
inactive: dose: 50.0 mg/kg/injection, schedule: Q04DX003 (ip), vehicle: saline 97 % of control | [4] 103 % of control | [5] 105 % of control | [6] 102 % of control and 106 % of control | [7] 105 % of control | [8] 103 % of control | [9] 95 % of control and 92 % of control and 103 % of control | [10] 103 % of control | [11] 103 % of control | [12] 103 % of control and 105 % of control

O=C1OC(c2ccccc2)=C/C1=C/c1ccc(Cl)cc1
inactive: dose: 25.0 mg/kg/injection, schedule: Q04DX003 (ip), vehicle: alcohol 88 % of control | dose: 50.0 mg/kg/injection, schedule: Q04DX003 (ip), vehicle: alcohol 90 % of control | dose: 100.0 mg/kg/injection, schedule: Q01DX001 (ip), vehicle: alcohol 86 % of control | dose: 100.0 mg/kg/injection, schedule: Q04DX003 (ip), vehicle: alcohol 87 % of control | dose: 150.0 mg/kg/injection, schedule: Q01DX009 (ip), vehicle: alcohol 89 % of control | dose: 150.0 mg/kg/injection, schedule: Q04DX003 (ip), vehicle: alcohol 87 % of control | dose: 225.0 mg/kg/injection, schedule: Q01DX009 (ip), vehicle: alcohol 86 % of control | dose: 225.0 mg/kg/injection, schedule: Q04DX003 (ip), vehicle: alcohol 91 % of control | dose: 335.0 mg/kg/injection, schedule: Q01DX009 (ip), vehicle: alcohol 107 % of control | dose: 335.0 mg/kg/injection, schedule: Q04DX003 (ip), vehicle: alcohol 90 % of control

S=C(S)Nc1cccc2ccccc12
inactive: dose: 12.5 mg/kg/injection, schedule: Q01DX009 (ip), vehicle: Klucel (hydroxypropylcellulose) (HPC) 103 % of control | dose: 12.5 mg/kg/injection, schedule: Q04DX003 (ip), vehicle: Klucel (hydroxypropylcellulose) (HPC) 100 % of control | dose: 25.0 mg/kg/injection, schedule: Q01DX009 (ip), vehicle: Klucel (hydroxypropylcellulose) (HPC) 98 % of control | dose: 25.0 mg/kg/injection, schedule: Q04DX003 (ip), vehicle: Klucel (hydroxypropylcellulose) (HPC) 94 % of control | dose: 50.0 mg/kg/injection, schedule: Q01DX009 (ip), vehicle: Klucel (hydroxypropylcellulose) (HPC) 92 % of control | dose: 50.0 mg/kg/injection, schedule: Q04DX003 (ip), vehicle: Klucel (hydroxypropylcellulose) (HPC) 100 % of control | [4] 94 % of control | dose: 100.0 mg/kg/injection, schedule: Q01DX009 (ip), vehicle: saline with Tween-80 89 % of control | [5] 98 % of control | dose: 100.0 mg/kg/injection, schedule: Q04DX003 (ip), vehicle: saline with Tween-80 93 % of control and 86 % of control | [7] 94 % of control | dose: 200.0 mg/kg/injection, schedule: Q01DX009 (ip), vehicle: saline with Tween-80 88 % of control | [8] 96 % of control | dose: 200.0 mg/kg/injection, schedule: Q04DX003 (ip), vehicle: saline with Tween-80 95 % of control and 86 % of control | [10] 99 % of control | dose: 400.0 mg/kg/injection, schedule: Q01DX009 (ip), vehicle: saline with Tween-80 104 % of control | [11] 91 % of control | dose: 400.0 mg/kg/injection, schedule: Q04DX003 (ip), vehicle: saline with Tween-80 101 % of control and 86 % of control

CCSc1nc(=S)cc(C)[nH]1
inactive: [4] 96 % of control | [5] 103 % of control | [7] 91 % of control | [8] 98 % of control | [10] 90 % of control | [11] 87 % of control

O=C1C2CCN(CC2)C1Cn1cnc2c(Cl)ncnc21 (stereo unspecified)
inactive: [13] 95 % of control | [14] 98 % of control

CC(C)CC1NC(C)(C)CO1 (stereo unspecified)
inactive: dose: 75.0 mg/kg/injection, schedule: Q01DX001 (ip), vehicle: carboxymethylcellulose (CMC) 102 % of control | dose: 150.0 mg/kg/injection, schedule: Q01DX001 (ip), vehicle: carboxymethylcellulose (CMC) 95 % of control | dose: 300.0 mg/kg/injection, schedule: Q01DX001 (ip), vehicle: carboxymethylcellulose (CMC) 100 % of control

CN(C)c1ncnc2c1ncn2C1OC(CO)C(N(C)C)C1O (stereo unspecified)
inactive: dose: 100.0 mg/kg/injection, schedule: Q01DX005 (ip), vehicle: saline 103 % of control | dose: 200.0 mg/kg/injection, schedule: Q01DX005 (ip), vehicle: saline 95 % of control

Oc1ccc(Nc2ccccc2)cc1
inactive: [1] 92 % of control | [6] 101 % of control | [2] 110 % of control | [9] 101 % of control | [3] 105 % of control | [12] 95 % of control

OCC1OC(n2cnc3c(SCc4ccccn4)ncnc32)C(O)C1O (stereo unspecified)
inactive: [1] 101 % of control | [2] 113 % of control | [3] 115 % of control

CCOC(=O)C1=NNC(C(C)=O)(C(=O)OCC)C1CC (stereo unspecified)
inactive: [4] 102 % of control | [7] 95 % of control | [10] 96 % of control

COC1OC2COc3ccccc3OC2C2C1N2C(c1ccccc1)N1C2C(OC)OC3COc4ccccc4OC3C21 (stereo unspecified)
inactive: dose: 100.0 mg/kg/injection, schedule: Q04DX002 (ip), vehicle: Klucel (hydroxypropylcellulose) (HPC) 93 % of control | dose: 200.0 mg/kg/injection, schedule: Q04DX002 (ip), vehicle: Klucel (hydroxypropylcellulose) (HPC) 100 % of control | dose: 400.0 mg/kg/injection, schedule: Q04DX002 (ip), vehicle: Klucel (hydroxypropylcellulose) (HPC) 107 % of control

Cc1cc(N(CCCCl)CCCCl)ccc1C=Nc1cc(Cl)c(O)c(Cl)c1
inactive: [5] 104 % of control | [8] 98 % of control | [11] 101 % of control

Nc1nc(-c2ccccc2)c2ccccc2n1
inactive: dose: 100.0 mg/kg/injection, schedule: Q01DX001 (ip), vehicle: carboxymethylcellulose (CMC) 101 % of control | dose: 200.0 mg/kg/injection, schedule: Q01DX001 (ip), vehicle: carboxymethylcellulose (CMC) 93 % of control | dose: 400.0 mg/kg/injection, schedule: Q01DX001 (ip), vehicle: carboxymethylcellulose (CMC) 104 % of control

CN1C(OO)CCOP1(=O)N(CCCl)CCCl (stereo unspecified)
inactive: dose: 75.0 mg/kg/injection, schedule: Q01DX001 (ip), vehicle: DMSO 96 % of control | dose: 150.0 mg/kg/injection, schedule: Q01DX001 (ip), vehicle: DMSO 99 % of control

C1CCC(CCC(CCC2CCCCC2)CCC2CCCCC2)CC1
inactive: [13] 89 % of control | [14] 91 % of control | dose: 400.0 mg/kg/injection, schedule: Q01DX001 (ip), vehicle: Klucel (hydroxypropylcellulose) (HPC) 91 % of control

N#Cc1cccc(OCCCCOc2ccccc2)c1
inactive: [4] 89 % of control | [7] 109 % of control | [10] 95 % of control
